According to patent US20020115699A1, “Method for treating renal disease” (SmithKline Beecham p.l.c., priority 1994, published 2002):
Several values for one entry are separate records, joined by “and”; a condition that tells them apart may be missing. Equal values may be shown once.

How the values were obtained:
obese Zucker fa/fa rats = assay: Renal histopathology after 3 months dietary administration in obese Zucker fa/fa rats; format: in vivo, rat; set-up: key to Hydronephrosis (histopathological severity, kidney) / Chronic Nephropathy (histopathological severity, kidney): 0: None seen; ±: Minimal; +: Mild; + +: Moderate; + + +: Marked
Description: Obese Zucker rats are known to develop chronic nephropathy in addition to hyperlipidaemia, hyperinsulinaemia and peripheral insulin resistance (Kasiske et al 1985).
5-[4- [2-(N-methyl-N-(2-pyridyl)amino)ethoxy]benzyl]thiazolidine-2,4-dione (herein after referred to as ‘test compound’) was administered to 2-3 month old obese Zucker fa/fa rats by dietary administration to provide a daily dose over a period of 3 months ranging from 2.0-7.0 μmole/kg body weight. A group of age-matched obese Zucker fa/fa rats were given the same diet without the addition of the test compound, as was a group of lean Fa/? rats. At the end of the study, all of the control Zucker fa/fa rats had chronic nephropathy which involved dilated tubules, atrophied or hyperplastic tubular epithelial cells, thickened tubular basement membranes, segmented glomeruli or global glomerulosclerosis.
In the corresponding lean animals, 3/15 animals, a minimal degree of chronic nephropathy was seen.
Characteristically this involved dilation of the kidney pelvis.

[1] = test system: Zucker fatty (fa/fa) rats; assay: Urinary N-acetyl β-D-glucosaminidase (NAG) activity in 9 month Zucker rat study; format: in vivo; conditions: for URINARY N-ACETYL-β-D-GLUCOSAMINIDASE ACTIVITY: mean ± SEM
Description: A second study was performed in Zucker rats over a period of 9 months to investigate the longitudinal effects of the drug on systolic blood pressure and various indices of renal function, two of which are exemplified here. In one arm of the study, the drug was given in the diet (50 μmole/kg of diet) from aged 6-7 weeks in Zucker fatty (fa/fa) rats, whilst in a second arm of the study, drug treatment as above was delayed until proteinuria had become established after 4 months, indicative of structural damage already present in the kidneys. A third group of Zucker fatty rats and a further group of lean rats were given diet alone throughout the period of study.
After dosing with the test compound, at monthly intervals measurements were made of systolic blood pressure, urinary total protein and urinary N-acetyl β-D-glucosaminidase (NAG) activity.
Twenty-four hour urine collections, made in metabolism cages, were aliquoted and frozen at −70° C. until required for assay.
NAG activity was assayed using a reagent kit on a Hitachi 717 analyser (both suppied by Boehringer Mannheim UK, Lewes). Enzyme activity was measured by monitoring the rate of chlorophenol (570 nm) released from the substrate chlorophenol red-β-D-glucosaminide.
In the tables below, results are given as mean values for the group ±the standard error of the mean. Results have been analysed by one way ANOVA and significant differences from the Zucker fatty rat control group have been indicated by an asterisk.

[2] = test system: Zucker fatty (fa/fa) rats; assay: Urinary total protein (Bio-Rad dye-binding assay, 24 h urine) in 9 month Zucker rat study; format: in vivo; conditions: for URINARY PROTEIN CONCENTRATION: Zucker fatty rats, 50 μmol/kg of diet from age 6-7 weeks (prior to renal complications), mean ± SEM
Description: A second study was performed in Zucker rats over a period of 9 months to investigate the longitudinal effects of the drug on systolic blood pressure and various indices of renal function, two of which are exemplified here. […] A third group of Zucker fatty rats and a further group of lean rats were given diet alone throughout the period of study. After dosing with the test compound, at monthly intervals measurements were made of systolic blood pressure, urinary total protein and urinary N-acetyl β-D-glucosaminidase (NAG) activity. Twenty-four hour urine collections, made in metabolism cages, were aliquoted and frozen at −70° C. until required for assay. Urinary protein concentration was measured using the Bio-Rad protein assay as modified for use in a 96-well microtitre plate. The assay is a dye-binding assay based on the differential colour change of a dye in response to various concentrations of protein (Bradford, Anal. Biochem., 72, 248, 1976). After a period of incubation with Dye Reagent, diluted urine samples are read at an optical density of 595 nm using a Molecular Devices multiplate reader.

[3] = individual obese Zucker fa/fa rats, test compound in diet 2.0-7.0 μmole/kg body weight daily, 3 months
[4] = Zucker fatty (fa/fa) rats treated from age 6-7 weeks for 9 months via the diet

Question: How did the “Chronic Nephropathy (histopathological severity, kidney)” value (obese Zucker fa/fa rats; [3]) turn out when `CN(CCOc1ccc(CC2SC(=O)NC2=O)cc1)c1ccccn1` (centres unmarked) [Test Compound, 5-[4-[2-(N-methyl-N-(2-pyridyl)amino)ethoxy]benzyl]thiazolidine-2,4-dione] was run?
Answer: + and ± (8×) and 0 and + +

Question: And the “Hydronephrosis (histopathological severity, kidney)” value (obese Zucker fa/fa rats; [3])?
Answer: 0

Question: And the “incidence and degree of chronic nephropathy” value (obese Zucker fa/fa rats; obese Zucker fa/fa rats, 3 months in diet, compared to control Zucker fa/fa rats)?
Answer: reduction in the incidence and degree of chronic nephropathy

Question: And the hydronephrosis (obese Zucker fa/fa rats; obese Zucker fa/fa rats, 3 months in diet, control 4/9 mild-moderate)?
Answer: No hydronephrosis was seen

Question: What about the “elevation of urinary NAG activity” value [1, 4] of the same compound?
Answer: markedly reduced

Question: What about the “URINARY N-ACETYL-β-D-GLUCOSAMINIDASE ACTIVITY” value ([1]; Zucker fatty rats, 50 μmol/kg of diet from age 6-7 weeks (prior to renal complications), treatment duration 0 months) of the same compound?
Answer: 5.7 ± 0.4 mU/hour

Question: What about the “URINARY N-ACETYL-β-D-GLUCOSAMINIDASE ACTIVITY” value ([1]; Zucker fatty rats, 50 μmol/kg of diet from age 6-7 weeks (prior to renal complications), treatment duration 1 month) of the same compound?
Answer: 7.5 ± 0.7 mU/hour

Question: And the “URINARY N-ACETYL-β-D-GLUCOSAMINIDASE ACTIVITY” value ([1]; Zucker fatty rats, 50 μmol/kg of diet from age 6-7 weeks (prior to renal complications), treatment duration 2 months)?
Answer: 3.8 ± 1.1 mU/hour

Question: What about the “URINARY N-ACETYL-β-D-GLUCOSAMINIDASE ACTIVITY” value ([1]; Zucker fatty rats, 50 μmol/kg of diet from age 6-7 weeks (prior to renal complications), treatment duration 3 months) of the same compound?
Answer: 4.5 ± 0.9 mU/hour

Question: And the “URINARY N-ACETYL-β-D-GLUCOSAMINIDASE ACTIVITY” value ([1]; Zucker fatty rats, 50 μmol/kg of diet from age 6-7 weeks (prior to renal complications), treatment duration 4 months)?
Answer: 5.1 ± 1.2 mU/hour

Question: And the “URINARY N-ACETYL-β-D-GLUCOSAMINIDASE ACTIVITY” value ([1]; Zucker fatty rats, 50 μmol/kg of diet from age 6-7 weeks (prior to renal complications), treatment duration 5 months)?
Answer: 6.5 ± 0.7 mU/hour

Question: And the “URINARY N-ACETYL-β-D-GLUCOSAMINIDASE ACTIVITY” value ([1]; Zucker fatty rats, 50 μmol/kg of diet from age 6-7 weeks (prior to renal complications), treatment duration 6 months)?
Answer: 6.5 ± 1.1 mU/hour

Question: And the “URINARY N-ACETYL-β-D-GLUCOSAMINIDASE ACTIVITY” value ([1]; Zucker fatty rats, 50 μmol/kg of diet from age 6-7 weeks (prior to renal complications), treatment duration 7 months)?
Answer: 8.9 ± 0.8 mU/hour

Question: What about the “URINARY N-ACETYL-β-D-GLUCOSAMINIDASE ACTIVITY” value ([1]; Zucker fatty rats, 50 μmol/kg of diet from age 6-7 weeks (prior to renal complications), treatment duration 8 months) of the same compound?
Answer: 6.2 ± 1.2 mU/hour

Question: What about the “URINARY N-ACETYL-β-D-GLUCOSAMINIDASE ACTIVITY” value ([1]; Zucker fatty rats, 50 μmol/kg of diet from age 6-7 weeks (prior to renal complications), treatment duration 9 months) of the same compound?
Answer: 9.1 ± 1.2 mU/hour

Question: And the “URINARY N-ACETYL-β-D-GLUCOSAMINIDASE ACTIVITY” value ([1]; Zucker fatty rats, 50 μmol/kg of diet started once renal complications established (after 4 months), treatment duration 0 months)?
Answer: 7.6 ± 0.7 mU/hour

Question: What about the “URINARY N-ACETYL-β-D-GLUCOSAMINIDASE ACTIVITY” value ([1]; Zucker fatty rats, 50 μmol/kg of diet started once renal complications established (after 4 months), treatment duration 1 month) of the same compound?
Answer: 7.6 ± 0.7 mU/hour

Question: And the “URINARY N-ACETYL-β-D-GLUCOSAMINIDASE ACTIVITY” value ([1]; Zucker fatty rats, 50 μmol/kg of diet started once renal complications established (after 4 months), treatment duration 2 months)?
Answer: 5.7 ± 0.9 mU/hour

Question: What about the “URINARY N-ACETYL-β-D-GLUCOSAMINIDASE ACTIVITY” value ([1]; Zucker fatty rats, 50 μmol/kg of diet started once renal complications established (after 4 months), treatment duration 3 months) of the same compound?
Answer: 7.4 ± 0.9 mU/hour

Question: And the “URINARY N-ACETYL-β-D-GLUCOSAMINIDASE ACTIVITY” value ([1]; Zucker fatty rats, 50 μmol/kg of diet started once renal complications established (after 4 months), treatment duration 4 months)?
Answer: 5.4 ± 1.0 mU/hour

Question: And the “URINARY N-ACETYL-β-D-GLUCOSAMINIDASE ACTIVITY” value ([1]; Zucker fatty rats, 50 μmol/kg of diet started once renal complications established (after 4 months), treatment duration 5 months)?
Answer: 8.0 ± 1.1 mU/hour

Question: What about the “URINARY N-ACETYL-β-D-GLUCOSAMINIDASE ACTIVITY” value ([1]; Zucker fatty rats, 50 μmol/kg of diet started once renal complications established (after 4 months), treatment duration −1 month (before start of drug)) of the same compound?
Answer: 7.8 ± 0.6 mU/hour

Question: And the “URINARY N-ACETYL-β-D-GLUCOSAMINIDASE ACTIVITY” value ([1]; Zucker fatty rats, 50 μmol/kg of diet started once renal complications established (after 4 months), treatment duration −2 months (before start of drug))?
Answer: 9.5 ± 1.1 mU/hour

Question: And the “URINARY N-ACETYL-β-D-GLUCOSAMINIDASE ACTIVITY” value ([1]; Zucker fatty rats, 50 μmol/kg of diet started once renal complications established (after 4 months), treatment duration −3 months (before start of drug))?
Answer: 8.3 ± 0.5 mU/hour

Question: What about the “URINARY N-ACETYL-β-D-GLUCOSAMINIDASE ACTIVITY” value ([1]; Zucker fatty rats, 50 μmol/kg of diet started once renal complications established (after 4 months), treatment duration −4 months (before start of drug)) of the same compound?
Answer: 5.4 ± 0.2 mU/hour

Question: What about the “urinary NAG activity” value ([1]; Zucker fatty rats, drug treatment commenced after proteinuria had become established) of the same compound?
Answer: prevented from rising further

Question: What about the “rate of development of proteinuria” value [2, 4] of the same compound?
Answer: markedly reduced

Question: And the “URINARY PROTEIN CONCENTRATION” value ([2]; treatment duration 0 months)?
Answer: 226 ± 15 µg/h

Question: What about the “URINARY PROTEIN CONCENTRATION” value ([2]; treatment duration 1 month) of the same compound?
Answer: 373 ± 22 µg/h

Question: What about the “URINARY PROTEIN CONCENTRATION” value ([2]; treatment duration 2 months) of the same compound?
Answer: 402 ± 22 µg/h

Question: And the “URINARY PROTEIN CONCENTRATION” value ([2]; treatment duration 3 months)?
Answer: 221 ± 32 µg/h

Question: What about the “URINARY PROTEIN CONCENTRATION” value ([2]; treatment duration 4 months) of the same compound?
Answer: 376 ± 54 µg/h

Question: What about the “URINARY PROTEIN CONCENTRATION” value ([2]; treatment duration 5 months) of the same compound?
Answer: 1573 ± 105 µg/h

Question: And the “URINARY PROTEIN CONCENTRATION” value ([2]; treatment duration 6 months)?
Answer: 1585 ± 147 µg/h

Question: What about the “URINARY PROTEIN CONCENTRATION” value ([2]; treatment duration 7 months) of the same compound?
Answer: 2124 ± 293 µg/h
